Reference: US12459957B2, “Therapeutic compounds and methods” (GENENTECH, INC., priority 2021, dated 2025)
“Also recorded” adds a separate entry of the source.

Experiments:
[1] = molecular target: T1, GSDMD (Homo sapiens, UniProt P57764); experiment: Western blot of LPS-induced cleavage of GSDMD in monocytes; format: cell-based; conditions: monocytes after electroporation with LPS
T1 construct: Western blots of monocytes at 1 h after electroporation with LPS; endogenous in cells; host or cells: primary human monocytes
T1 sequence (P57764 1-484): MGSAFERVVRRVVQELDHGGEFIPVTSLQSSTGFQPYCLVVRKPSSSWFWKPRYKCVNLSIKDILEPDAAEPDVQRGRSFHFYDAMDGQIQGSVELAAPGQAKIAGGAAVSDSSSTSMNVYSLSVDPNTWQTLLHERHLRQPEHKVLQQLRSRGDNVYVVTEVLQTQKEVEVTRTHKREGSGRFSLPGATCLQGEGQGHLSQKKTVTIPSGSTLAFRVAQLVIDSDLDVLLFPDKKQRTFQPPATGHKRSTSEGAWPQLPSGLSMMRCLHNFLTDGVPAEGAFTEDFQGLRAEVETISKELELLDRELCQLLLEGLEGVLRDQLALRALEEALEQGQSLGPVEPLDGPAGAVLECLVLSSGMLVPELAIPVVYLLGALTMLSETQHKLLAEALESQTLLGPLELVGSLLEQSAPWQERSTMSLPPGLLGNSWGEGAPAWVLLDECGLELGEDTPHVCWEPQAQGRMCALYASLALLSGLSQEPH
Method: (§1) FIG. 1. […] LDH (A) or IL-1β (B) released from primary human monocytes. Bars show the mean±s.e.m. of monocytes from 3 donors. (C) Western blots of monocytes at 1 h after electroporation with LPS. FL, full length GSDMD. NT, N-terminal fragment of GSDMD. Results representative of 3 independent experiments. (D) Coomassie blue staining of recombinant GSDMD. Results representative of 3 independent experiments. (E) TR-FRET assay measuring Europium-labeled biotin released from liposomes exposed to caspase-4 and GSDMD. Symbols indicate the mean±s.d. of 3 independent experiments. (F-G) Percentage of polymorphonuclear leukocytes (PMNs) undergoing NETosis induced by PMA (F) or the stimuli indicated (G). Data are the mean±s.d. of cells from 3 donors. (H) ROS production by PMNs. Bars show the mean±s.e.m. of PMNs from 3 donors. P-values (Two-way ANOVA, means compared to medium alone) are shown if P<0.05. (I) Percentage of PMNs undergoing PMA-induced NETosis. The x-axis indicates when NA-11 was added relative to the addition of PMA (t=0). Bars show the mean±s.e.m. of PMNs from 3 donors. P-values (one-way ANOVA, means compared to medium alone) are shown if P<0.05.
(§2) LDC7559 was reported to block the pore-forming activity of GSDMD (Sollberger et al., 2018). The ability to inhibit GSDMD-dependent pyroptosis in primary human monocytes and human monocytic THP-1 cells was tested (FIG. 1A-C).

[2] = tested on: GSDMD-dependent pyroptosis in primary human monocytes and human monocytic THP-1 cells; experiment: GSDMD-dependent pyroptosis, LDH release; format: cell-based; conditions: induced by nigericin, cytoplasmic LPS or cytoplasmic poly(dA-dT)
Method: as §1, §2

[3] = molecular target: T2, recombinant GSDMD / caspase-4 (Homo sapiens, UniProt P57764); experiment: Cleavage of recombinant GSDMD by caspase-4; format: biochemical
T2 sequence (P57764 1-484): T1 sequence (P57764 1-484)
Method: as §1, §2

[4] = molecular target: T3, GSDMD pore-forming fragment (Homo sapiens, UniProt P57764); experiment: TR-FRET liposome permeabilization by GSDMD pore-forming fragment; format: biochemical; conditions: liposomes exposed to caspase-4 and GSDMD
T3 sequence (P57764 1-275 limits assumed): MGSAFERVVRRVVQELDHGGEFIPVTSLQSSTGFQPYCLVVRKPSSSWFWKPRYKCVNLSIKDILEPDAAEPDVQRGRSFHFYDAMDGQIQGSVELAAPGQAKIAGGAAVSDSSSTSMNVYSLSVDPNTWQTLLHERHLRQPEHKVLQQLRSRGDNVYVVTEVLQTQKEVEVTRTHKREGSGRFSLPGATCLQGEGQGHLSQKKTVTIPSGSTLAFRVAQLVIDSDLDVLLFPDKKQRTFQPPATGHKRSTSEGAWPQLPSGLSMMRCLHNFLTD
Method: as §1, §2

[5] = molecular target: T4, phosphofructokinase-1 liver type (PFKL) (Homo sapiens, UniProt P17858); experiment: PFKL activation; format: biochemical
T4 sequence (P17858 1-780): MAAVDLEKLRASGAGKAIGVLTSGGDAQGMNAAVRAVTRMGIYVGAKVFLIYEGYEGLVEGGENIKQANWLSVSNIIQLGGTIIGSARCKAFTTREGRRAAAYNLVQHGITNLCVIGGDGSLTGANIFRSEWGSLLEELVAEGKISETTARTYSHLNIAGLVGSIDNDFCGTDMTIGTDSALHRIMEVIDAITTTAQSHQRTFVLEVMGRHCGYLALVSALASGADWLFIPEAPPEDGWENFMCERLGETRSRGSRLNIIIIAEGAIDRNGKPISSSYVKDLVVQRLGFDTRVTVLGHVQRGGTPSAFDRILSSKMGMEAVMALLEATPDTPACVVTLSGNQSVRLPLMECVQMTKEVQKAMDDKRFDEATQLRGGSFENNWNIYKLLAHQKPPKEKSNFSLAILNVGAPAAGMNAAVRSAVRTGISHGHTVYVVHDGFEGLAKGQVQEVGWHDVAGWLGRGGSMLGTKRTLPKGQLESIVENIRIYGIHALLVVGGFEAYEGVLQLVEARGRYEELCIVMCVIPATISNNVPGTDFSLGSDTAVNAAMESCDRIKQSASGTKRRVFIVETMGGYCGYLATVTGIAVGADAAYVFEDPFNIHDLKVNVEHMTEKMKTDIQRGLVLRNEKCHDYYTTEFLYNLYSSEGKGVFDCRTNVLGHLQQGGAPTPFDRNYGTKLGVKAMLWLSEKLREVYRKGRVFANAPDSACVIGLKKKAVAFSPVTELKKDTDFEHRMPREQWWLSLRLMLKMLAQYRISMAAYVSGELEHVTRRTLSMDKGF

[6] = tested on: neutrophils (PMA-stimulated NETosis); experiment: Quantification of NETosis using SYTOX Green; format: cell-based, human; conditions: for NETosis (qualitative): polymorphonuclear leukocytes, FIG. 1
Source text: Semi-automated analysis of both phase and fluorescence images of SYTOX Green-stained neutrophils used a MATLAB algorithm. Total cells were counted by scoring phase standard deviation and radial symmetry. NETosis was classified in cells by measuring the DNA area in the fluorescence image and comparing with a select internal training set for each experiment. Unstimulated cells and PMA-stimulated, pyocyanin-inhibited cells served as negative controls. PMA-stimulated cells served as a positive control. NET-forming cells are presented as a percentage of total cells.

[7] = tested on: GSDMD-dependent release of interleukin-1β (IL-1β) from monocytes; experiment: GSDMD-dependent release of IL-1β from monocytes; format: cell-based, human; conditions: in response to nigericin or poly(dA-dT)
Method: as §1, §2

[8] = tested on: NOX2-dependent oxidative burst in neutrophils; experiment: NOX2-dependent oxidative burst in neutrophils; format: cell-based
[9] = tested on: neutrophils (PMA-stimulated ROS); experiment: ROS detection assay (ROS-Glo, H2O2); format: cell-based; conditions: Neutrophil; human neutrophils, 30 min preincubation, 50 nM PMA for 30 min
Method: ROS were measured in neutrophils using the ROS-Glo bioluminescent assay (Promega) for the direct detection of H2O2. Neutrophils were isolated from fresh human blood using a biphasic Histopaque gradient as described here. Cells (100 uL per well) were plated in 96-well plates at a density of 200,000 cells/mL in high glucose DMEM medium. Cells were preincubated with either DMSO vehicle or compounds (10-point dilution curve starting at 2 uM with 3-fold serial dilution) for 30 min, and then stimulated with 50 nM PMA for 30 min. Luminescence, after the addition of H2O2 substrate solution for 20 min, and then ROS-Glo detection solution for 20 min, was recorded on a luminescence plate reader. The fifty percent inhibitory concentration (IC50) was determined with GraphPad Prism by plotting the assay output (RLU) versus the logarithm of the compound concentration using a non-linear sigmoid with variable slope algorithm with the default curve-fitting parameters in the Prism software.

[10] = molecular target: T5, phosphofructokinase-1 platelet type (PFKP) (Homo sapiens, UniProt Q01813); experiment: PFKP activation; format: biochemical
T5 sequence (Q01813 1-784): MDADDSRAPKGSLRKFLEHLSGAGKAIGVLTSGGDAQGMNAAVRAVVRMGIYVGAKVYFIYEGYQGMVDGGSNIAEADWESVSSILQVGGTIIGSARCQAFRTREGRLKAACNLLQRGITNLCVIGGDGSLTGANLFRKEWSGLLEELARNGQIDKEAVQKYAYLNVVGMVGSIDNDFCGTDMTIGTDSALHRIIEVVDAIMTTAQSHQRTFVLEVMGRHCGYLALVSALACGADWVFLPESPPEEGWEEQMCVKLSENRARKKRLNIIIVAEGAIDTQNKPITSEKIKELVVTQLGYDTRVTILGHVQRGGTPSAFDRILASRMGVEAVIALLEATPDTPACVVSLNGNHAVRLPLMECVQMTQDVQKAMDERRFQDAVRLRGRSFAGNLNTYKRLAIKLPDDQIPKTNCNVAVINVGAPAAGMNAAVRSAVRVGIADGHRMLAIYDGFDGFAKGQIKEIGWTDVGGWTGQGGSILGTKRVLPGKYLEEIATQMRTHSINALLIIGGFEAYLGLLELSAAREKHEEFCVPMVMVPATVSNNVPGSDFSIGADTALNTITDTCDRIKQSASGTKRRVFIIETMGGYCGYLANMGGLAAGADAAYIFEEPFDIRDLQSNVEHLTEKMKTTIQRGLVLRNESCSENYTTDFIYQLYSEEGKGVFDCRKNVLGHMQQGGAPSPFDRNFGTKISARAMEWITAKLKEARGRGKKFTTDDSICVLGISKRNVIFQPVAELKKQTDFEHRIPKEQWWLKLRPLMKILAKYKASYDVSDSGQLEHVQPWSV

[11] = molecular target: T6, phosphofructokinase-1 muscle type (PFKM) (Homo sapiens, UniProt P08237); experiment: PFKM activation; format: biochemical
T6 sequence (P08237 1-780): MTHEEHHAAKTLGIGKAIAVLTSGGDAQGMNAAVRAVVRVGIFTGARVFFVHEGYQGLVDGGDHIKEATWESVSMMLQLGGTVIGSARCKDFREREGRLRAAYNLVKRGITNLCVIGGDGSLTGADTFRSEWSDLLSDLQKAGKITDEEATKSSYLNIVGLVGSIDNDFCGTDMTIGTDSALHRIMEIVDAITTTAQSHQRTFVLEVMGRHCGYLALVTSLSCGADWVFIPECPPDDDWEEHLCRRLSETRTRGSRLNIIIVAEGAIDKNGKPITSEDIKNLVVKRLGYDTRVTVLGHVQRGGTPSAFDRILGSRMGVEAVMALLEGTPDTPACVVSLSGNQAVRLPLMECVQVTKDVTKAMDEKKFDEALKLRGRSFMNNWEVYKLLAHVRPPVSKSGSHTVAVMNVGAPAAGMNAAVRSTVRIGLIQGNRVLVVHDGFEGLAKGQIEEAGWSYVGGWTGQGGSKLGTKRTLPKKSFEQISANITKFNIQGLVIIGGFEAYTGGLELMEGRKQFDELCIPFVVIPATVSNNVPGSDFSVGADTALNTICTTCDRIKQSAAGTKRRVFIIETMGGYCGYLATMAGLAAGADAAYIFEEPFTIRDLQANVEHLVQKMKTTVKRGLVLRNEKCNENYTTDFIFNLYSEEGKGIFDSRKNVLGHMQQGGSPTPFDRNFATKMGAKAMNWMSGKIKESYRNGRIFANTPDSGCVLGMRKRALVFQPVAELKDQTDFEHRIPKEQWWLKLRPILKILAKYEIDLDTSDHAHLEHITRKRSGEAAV

| LPS-induced cleavage of GSDMD (Western blotting) [1] | cleavage of recombinant GSDMD by caspase-4 [3] | liposome permeabilization by GSDMD pore-forming fragment [4] | agonism/activation of PFKL [5] | IC50 [9] | agonism of PFKP [10] | agonism of PFKM [11] | Compound | GSDMD-dependent pyroptosis (LDH release) [2] | NETosis (qualitative) [6] | GSDMD-dependent release of IL-1β [7] | NOX2-dependent oxidative burst [8] | IC50 ([6]; Homo sapiens, Neutrophil, NETosis, SYTOX Green-stained neutrophils, PMA-stimulated) | 5 uM (% NETosis) ([6]; compound at 5 uM, NET-forming cells as percentage of total cells, vehicle 79.66, untreated 14.54) |
| --- | --- | --- | --- | --- | --- | --- | --- | --- | --- | --- | --- | --- | --- |
| did not prevent | did not inhibit | Nor did it prevent | activating; also recorded: agonize |  |  |  | COc1ccccc1-c1cc2n(n1)Cc1ccc(NC(C)=O)cc1OC2 [LDC7559, N-(2-(2-methoxyphenyl)-4H,10H-benzo[f]pyrazolo[5,1-c][1,4]oxazepin-7-yl)acetamide] | did not alter | inhibit NETosis | occurred normally | inhibit; also recorded: suppress |  |  |
|  |  |  | activating | 0.026 µM | failed to agonize | failed to agonize | CC(=O)Nc1ccc2c(c1)OCc1cc(-c3ccccc3C#CCCCO)nn1C2 [Example 6, N-(2-(2-(5-hydroxypent-1-yn-1-yl)phenyl)-4H,10H-benzo[f]pyrazolo[5,1-c][1,4]oxazepin-7-yl)acetamide] |  | inhibit NETosis |  | inhibit | 0.004 ± 0.0005 µM | 58.67% |
